The source of these data is patent US7829567B2, “Imino-indeno[1,2-c] quinoline derivatives, their preparation processes, and pharmaceutical compositions comprising the same” (Kaohsiung Medical University, priority 2007, dated 2010).

Series [1] concerns human cervical epithelioid carcinoma (HeLa). Nature of the series: In vitro anticancer assay (MTT), HeLa. The series is classed as cell-based. The conditions noted are these: HeLa cells, 48 hrs, mean ± spread, read-out: Anti-proliferative evaluation IC50, HeLa. On the procedure: (§1) The resultant tetrazolium salt was then dissolved by the addition of dimethyl sulfoxide. Color was measured spectrophotometrically in a microtiter plate reader at 570 nm and used as a relative measure of viable cell number. The number of viable cells after treatment was compared to solvent and untreated control cells and used to determine the percent of control growth as (Abtreated/Abcontrol)×100, where Ab represents the mean absorbance (n=3). […] D. Heo et al. […] (+)-camptothecin (CPT) and doxorubicin hydrochloride (Dox) were used for comparison with the compounds according to this invention.

Series [2] deals with oral squamous cell carcinoma (SAS). Kind of series: In vitro anticancer assay (MTT), SAS. Conditions: SAS cells, 48 hrs, mean ± spread, read-out: Anti-proliferative evaluation IC50, SAS. The series is classed as cell-based. The method, then: as §1
In series [3] the test system is hepatocellular carcinoma (SKHep1). Nature of the series: In vitro anticancer assay (MTT), SKHep1. Conditions: 48 hrs, mean ± spread, read-out: Anti-proliferative evaluation IC50, SKHep1. It is filed as cell-based. On the procedure: as §1
The subject of series [4] is human stomach adenocarcinoma (AGS). Kind of series: In vitro anticancer assay (MTT), AGS. The series is classed as cell-based. The conditions noted are these: AGS cells, 48 hrs, mean ± spread, read-out: Anti-proliferative evaluation IC50, AGS. On the procedure:
as §1

Series [5] relates to human renal clear cell carcinoma. Nature of the series: In vitro anticancer assay (MTT), RCC 768-O. The series is classed as cell-based. Conditions: RCC 768-O cells, 48 hrs, mean ± spread, read-out: Anti-proliferative evaluation IC50, RCC 768-O. On the procedure:
as §1

Series [6] relates to esophageal carcinoma (CE81T). Kind of series: In vitro anticancer assay (MTT), CE81T. The series is classed as cell-based. Conditions: CE81T cells, 48 hrs, mean ± spread, read-out: Anti-proliferative evaluation IC50, CE81T. The method, then:
as §1

Where [7] appears, read: Homo sapiens, SK-HEP1, SKHep1 cells.

Each structure is given as a SMILES string. Where a name gives a salt, the structure may show the parent alone. Read-outs that look alike come from different tables or passages of the source.

Molecule `CON=C1c2ccccc2-c2c(N3CCNCC3)nc3ccccc3c21` (as salt: salt) [Compound 6j, 6-(Piperazin-1-yl)-11H-indeno[1,2-c]quinolin-11-one O-methyl oxime] showed a melting point of 149 to 150 °C.

Take `CN(C)CCNc1nc2ccccc2c2c1-c1ccccc1C2=O` [Compound 5a, 6-(2-(Dimethylamino)ethylamino)-11H-indeno[1,2-c]quinolin-11-one]: the melting point fell in the range of 148 to 149 °C. Also, the IC50 in series [1] (Homo sapiens) was determined as 2.4 ± 1.2 µM. In addition, in series [2], the IC50 was 6.6 ± 0.9 µM. Also, the IC50 in series [3] (setting [7]) turned out to be 3.8 ± 1.8 µM. In series [4] (Homo sapiens), the IC50 was found to be 7.9 ± 1.5 µM. In series [5] (Homo sapiens), the IC50 came out at 7.1 ± 0.6 µM. The IC50 in series [6] amounted to 4.1 ± 3.3 µM.

In turn, `COc1ccc2c(c1)C(=O)c1c-2cnc2ccccc12` [Compound 5d, 9-Methoxy-11H-indeno[1,2-c]quinolin-11-one] displayed a melting point of 195 to 196 °C.

Molecule `COc1ccc2c(c1)C(=O)c1c-2c(O)nc2ccccc12` [Compound 5e, 6-Hydroxy-9-methoxy-11H-indeno[1,2-c]quinolin-11-one] gave a melting point of 316 to 317 °C.

As for `COc1ccc2c(c1)C(=O)c1c-2c(N2CCN(C(=O)CCCl)CC2)nc2ccccc12` [Compound 5hh, 6-[4-(3-Chloropropanoyl)piperazin-1-yl]-9-methoxy-11H-indeno[1,2-c]quinolin-11-one], the melting point was 162 to 163 °C.

As for `COc1ccc2c(c1)C(=O)c1c-2c(Nc2ccc(C(C)=O)cc2)nc2ccccc12` [Compound 5s, 6-(4-Acetylphenylamino)-9-methoxy-11H-indeno[1,2-c]quinolin-11-one], the melting point fell in the range of 251 to 252 °C. Moreover, the IC50 in series [1] (Homo sapiens) worked out at 7.2 ± 0.9 µM. For the same molecule, the IC50 in series [2] was found to be 6.5 ± 0.9 µM. Also, the IC50 in series [3] (setting [7]) stood at 7.4 ± 2.1 µM. The IC50 in series [4] (Homo sapiens) is 5.9 ± 1.4 µM. In series [5] (Homo sapiens), the IC50 came to 9.1 ± 1.5 µM. In addition, in series [6], the IC50 was found to be 6.8 ± 1.2 µM.

Molecule `COc1ccc2c(c1)C(=O)c1c-2c(N2CCNCC2)nc2ccccc12` [Compound 5x, 9-Methoxy-6-(piperazin-1-yl)-11H-indeno[1,2-c]quinolin-11-one] had a melting point of 150 to 151 °C. Also, in series [1] (Homo sapiens), the IC50 came to 15.2 ± 1.5 µM. In addition, the IC50 in series [2] was > 30 µM. Further, the IC50 in series [3] (setting [7]) turned out to be 25.3 ± 15.5 µM. In addition, in series [4] (Homo sapiens), the IC50 is 10.1 ± 1.2 µM. Also, the IC50 in series [5] (Homo sapiens) came to 12.5 ± 1 µM. In series [6], the IC50 is > 30 µM.

Molecule `COc1ccc2c(c1)C(=NO)c1c-2cnc2ccccc12` [Compound 6a, 9-Methoxy-11H-indeno[1,2-c]quinolin-11-one oxime] came in with a melting point of 270 to 271 °C.

Turning to `CON=C1c2cc(OC)ccc2-c2c(N3CCN(C(=O)CCN(C)C)CC3)nc3ccccc3c21` [Compound 6m], the IC50 in series [1] was determined as 3.6 ± 1.6 µM; in series [2] it was 7 ± 0.5 µM; in series [3] (SKHep1 cells), 5 ± 0.8 µM; in series [4], 7.5 ± 1.1 µM; in series [5], 5.3 ± 1.8 µM; in series [6], 3 ± 2 µM.

Take `COc1ccc2c(c1)C(=NO)c1c-2c(N2CCN(C(=O)CCNCCN(C)C)CC2)nc2ccccc12` [Compound 6n, 3-[2-(Dimethylamino)ethylamino]-1-{4-[11-(hydroxyimino)-9-methoxy-11H-indeno[1,2-c]quinolin-6-yl]piperazin-1-yl}propan-1-one]: the IC50 is > 30 µM in series [1] (Homo sapiens); 7.3 ± 0.4 µM in series [2]; > 30 µM in series [3] (setting [7]); 7.4 ± 1.2 µM in series [4] (Homo sapiens); 5.6 ± 1.6 µM in series [5] (Homo sapiens); > 30 µM in series [6].

For `CON=C1c2cc(OC)ccc2-c2c(N3CCN(C(=O)CCNCCN(C)C)CC3)nc3ccccc3c21` [Compound 6o], the IC50 in series [1] was 11.5 ± 1.3 µM; in series [2], 19.1 ± 2.2 µM; in series [3] (SKHep1 cells) it was 11.6 ± 7.3 µM; in series [4], > 30 µM; in series [5], > 30 µM; in series [6], 4.8 ± 1.6 µM.

For `COc1ccc2c(c1)C(=NO)c1c-2c(N2CCNCC2)nc2ccccc12` [Compound 6p, 9-Methoxy-6-(piperazin-1-yl)-11H-indeno[1,2-c]quinolin-11-one oxime], the IC50 in series [1] (Homo sapiens) was found to be 2.7 ± 1.2 µM; in series [2], 6.1 ± 0.9 µM; in series [3] (setting [7]), 3.8 ± 1.3 µM; in series [4] (Homo sapiens), 1.7 ± 0.5 µM; in series [5] (Homo sapiens) it was 1.2 ± 0.9 µM; in series [6], 2.6 ± 0.9 µM.

With `CON=C1c2cc(OC)ccc2-c2c(N3CCNCC3)nc3ccccc3c21` [Compound 6q], the IC50 amounted to 10.6 ± 4.4 µM in series [1]; 10.3 ± 0.5 µM in series [2]; 9.3 ± 2.9 µM in series [3] (SKHep1 cells); 5.2 ± 0.5 µM in series [4]; 8.3 ± 1.3 µM in series [5]; 7.2 ± 3.1 µM in series [6].

Take `COc1ccc2c(c1)C(=NOCCN(C)C)c1c-2c(N2CCNCC2)nc2ccccc12` [Compound 6r, 9-Methoxy-6-(piperazin-1-yl)-11H-indeno[1,2-c]quinolin-11-one O-2-(dimethylamino)ethyl oxime]: the IC50 in series [1] (Homo sapiens) was 0.5 ± 0.2 µM; in series [2], 2.4 ± 1.2 µM; in series [3] (setting [7]), 0.7 ± 0.2 µM; in series [4] (Homo sapiens) it was 6.8 ± 2 µM; in series [5] (Homo sapiens) it was 2 ± 1.9 µM; in series [6], > 30 µM.

For the molecule `COc1ccc2c(c1)C(=NOCCCN(C)C)c1c-2c(N2CCNCC2)nc2ccccc12` [Compound 6s, 9-Methoxy-6-(piperazin-1-yl)-11H-indeno[1,2-c]quinolin-11-one O-3-(dimethylamino)propyl oxime], the IC50 in series [1] (Homo sapiens) was 0.6 ± 0.3 µM; in series [2], 4.9 ± 0.6 µM; in series [3] (setting [7]), 3 ± 2.8 µM; in series [4] (Homo sapiens) it was 6.8 ± 1.8 µM; in series [5] (Homo sapiens), 4.9 ± 0.8 µM; in series [6], > 30 µM.

Turning to `COc1ccc2c(c1)C(=NOCCCN)c1c-2c(N2CCNCC2)nc2ccccc12` [Compound 6t, 9-Methoxy-6-(piperazin-1-yl)-11H-indeno[1,2-c]quinolin-11-one O-3-aminopropyl oxime], the IC50 stood at 0.9 ± 0.4 µM in series [1] (Homo sapiens); 6.3 ± 0.9 µM in series [2]; 3 ± 2.2 µM in series [3] (setting [7]); 5.9 ± 1.2 µM in series [4] (Homo sapiens); 4.4 ± 1.4 µM in series [5] (Homo sapiens); 6.5 ± 0.6 µM in series [6].

Consider `COc1ccc2c(c1)C(=NOCCN1CCCC1)c1c-2c(N2CCNCC2)nc2ccccc12` [Compound 6u, 9-Methoxy-6-(piperazin-1-yl)-11H-indeno[1,2-c]quinolin-11-one O-2-(pyrrolidin-1-yl)ethyl oxime], for which the IC50 in series [1] (Homo sapiens) stood at 0.6 ± 0.2 µM; in series [2] it was 2.4 ± 1.3 µM; in series [3] (setting [7]), 0.7 ± 0.3 µM; in series [4] (Homo sapiens), 4.8 ± 1.3 µM; in series [5] (Homo sapiens) it was 2.6 ± 0.5 µM; in series [6], 2.9 ± 1.7 µM.

As for `COc1ccc2c(c1)C(=NOCCN1CCCCC1)c1c-2c(N2CCNCC2)nc2ccccc12` [Compound 6v, 9-Methoxy-6-(piperazin-1-yl)-11H-indeno[1,2-c]quinolin-11-one O-2-(piperidin-1-yl)ethyl oxime], the IC50 in series [1] (Homo sapiens) is 0.8 ± 0.3 µM; in series [2], 5.8 ± 0.5 µM; in series [3] (setting [7]) it was 1.6 ± 0.5 µM; in series [4] (Homo sapiens) it was 7.1 ± 0.8 µM; in series [5] (Homo sapiens) it was 4.5 ± 1.4 µM; in series [6] it was > 30 µM.

For `COc1ccc2c(c1)C(=NOCCN1CCOCC1)c1c-2c(N2CCNCC2)nc2ccccc12` [Compound 6w], the IC50 in series [1] was 0.8 ± 0.2 µM; in series [2] it was 6.9 ± 1.3 µM; in series [3] (SKHep1 cells), 1 ± 0.4 µM; in series [4] it was 5.8 ± 1.9 µM; in series [5] it was 4.1 ± 1.9 µM; in series [6], > 30 µM.

For the molecule `COc1ccc2c(c1)C(=NOCc1ccccc1)c1c-2c(N2CCNCC2)nc2ccccc12` [Compound 6x], the half-inhibitory concentration (IC50) in series [1] was 6.1 ± 0.3 µM; in series [2] it was 7.6 ± 0.6 µM; in series [3] (SKHep1 cells) it was 4.2 ± 1.8 µM; in series [4] it was 6.1 ± 1.4 µM; in series [5], 7 ± 0.4 µM; in series [6] it was 3.4 ± 2.3 µM.

Take `COc1ccc2c(c1)C(=NOCC1CO1)c1c-2c(N2CCN(CC3CO3)CC2)nc2ccccc12` (centres unmarked) [Compound 6y]: the IC50 was 0.5 ± 0.2 µM in series [1]; 6.2 ± 0.9 µM in series [2]; 1 ± 0.5 µM in series [3] (SKHep1 cells); 8.8 ± 4.1 µM in series [4]; 8.8 ± 2.2 µM in series [5]; 2 ± 1.2 µM in series [6].

Turning to `COc1ccc2c(c1)C(=NOCC(O)CN(C)C)c1c-2c(N2CCN(CC(O)CN(C)C)CC2)nc2ccccc12` (centres unmarked) [Compound 6z], the IC50 stood at 1 ± 0.4 µM in series [1]; 9 ± 2.7 µM in series [2]; 2.5 ± 1.7 µM in series [3] (SKHep1 cells); 18.6 ± 6.2 µM in series [4]; 13.9 ± 10.5 µM in series [5]; 9 ± 3.6 µM in series [6].

As to `COc1cccc2c1C(=O)c1c(O)c3c(c(O)c1C2=O)C[C@@](O)(C(=O)CO)C[C@@H]3O[C@H]1C[C@H](N)[C@H](O)[C@H](C)O1` [Dox, doxorubicin hydrochloride, reference compound], the IC50 in series [1] (Homo sapiens) was 0.4 ± 0.1 µM; in series [2], 5.7 ± 0.3 µM; in series [3] (setting [7]), < 0.1 µM; in series [4] (Homo sapiens), > 30 µM; in series [5] (Homo sapiens) it was 2.2 ± 0.3 µM; in series [6], 0.3 ± 0.1 µM.
